Laboratory results as given in patent US20080227853A1, “ANDROGENE MEMBRANE RECEPTOR AGONIST” (BIONATURE E. A. LIMITED, priority 2007, published 2008).

What follows are compounds tested on T47D human breast cancer cells (assay: Actin cytoskeleton modification in T47D cells (rhodamine-phalloidin staining)). Conditions: T47D cells incubated 24 hours, FIG. 3.
Type: cell-based

Row | Compound | modifications of the actin cytoskeleton
1 | catechin | polymerization and sub-membrane redistribution
2 | Oc1cc(O)c2c(c1)O[C@H](c1ccc(O)c(O)c1)[C@H](O)[C@H]2c1c(O)cc(O)c2c1O[C@H](c1ccc(O)c(O)c1)[C@H](O)C2 [B2] | polymerization and sub-membrane redistribution
3 | Oc1cc(O)c2c(c1)O[C@H](c1ccc(O)c(O)c1)[C@H](O)[C@H]2c1c(O)cc2c(c1O)C[C@@H](O)[C@@H](c1ccc(O)c(O)c1)O2 [B5] | polymerization and sub-membrane redistribution
